In assay [1] the test system is Prp8 intein splicing in Cne-WT. As to the kind of experiment: Western blot, in vivo Prp8 intein splicing in Cne. It is filed as cell-based, Cryptococcus neoformans. The settings on record: Cne-WT incubated with CMN 18 h. The method, then:
TCEP is added to a final concentration of 100 µM and incubated for 24 h. The substrate Nano-Glo luciferase (Promega) was added, and the resulting luminescence was read. IC50 was calculated using GraphPad prism. […] TCEP was added to a concentration of 1 mM and incubated for 24 h. From this reaction mixture, 10 μl was mixed with an equal volume of 2×SDA-PAGE loading dye and loaded onto 12% SDS-PAGE gel without boiling the sample. The gel was scanned with UV using Chemidoc (Bio Rad), and band intensities were quantified using Image Lab software. […] Cells were harvested and washed in PBS, lysed with bead lyser, and centrifuged at 10,000 rpm. An equal quantity of protein (50 μg) from each treatment was loaded onto 12% SDS-PAGE and blotted onto the NC membrane, blocked with 5% skimmed milk. The membrane was probed with anti-prp8 intein rabbit polyclonal sera, followed by goat anti-rabbit HRP antibody. Signals were developed using a chemiluminescent kit. The density of the spliced intein bands (˜20 kDa) were quantified using Image lab software. A band at ˜130 kDa is uncharacterized, as explained below. NC: nitrocellulose. Abs: absorbance
DMSO was used as a control. An equal volume of freshly grown Cne-WT culture (0.2 OD at 600 nm) was added to obtain the final absorbance of 0.1 OD. […] Intensities of bands were quantified by image lab software and compared with that of control.
On the technique in general: Immunoblotting shows a protein as a band on a membrane.

Another assay relates to C. neoformans (Cne-WT). As to the kind of experiment: MIC by microdilution method. The format is cell-based. The settings on record: Cryptococcus neoformans, 48 h. The method, then:
(§1) Serial double dilution of the CMN was done in the RPMI-MOPS medium. Freshly grown fungal culture from the SD agar plate was resuspended in sterile water and diluted to get 0.1 OD at 600 nm. […] The plates were incubated at 30° C. for 48 h. Plates were checked for growth by visual observation. For Afu, resazurin was added to 44 µM and incubated for 12 h at 37° C. before noting a change in color from blue to pink by live cells. MIC is defined as the minimum concentration at which there is no growth when observed visually.
On the technique in general: In broth dilution the organism is exposed to a series of concentrations in liquid medium.

A further assay deals with C. amylolentus. The assay is described as follows: MIC by microdilution method. It is filed as cell-based. The procedure: as §1
Assay [2] deals with C. neoformans (Cne-Mut), inteinless mutant strain. As to the kind of experiment: MIC by microdilution method. The settings on record: Cryptococcus neoformans, 48 h. It is filed as cell-based. The method, then: as §1
A further assay relates to C. gattii (NIH444). As to the kind of experiment: MIC by microdilution method. It is filed as cell-based. The settings on record: Cryptococcus gattii, visual, 48 h, 30° C. The procedure:
as §1

In the next assay the test system is Cne cells. As to the kind of experiment: Checkerboard assay with known antifungals. The format is cell-based, Cryptococcus neoformans. The method, then: After adding Cne cells, the plates were incubated for 48 h. Well contents were mixed by pipette, and absorbance was read at 630 nm. […] Based on the FIC, the combinatorial effects are decided as in Table 2.

The next assay deals with Cne-H99. The assay is described as follows: Efficacy in cryptococcal pulmonary infection mouse model. The format is in vivo, Cryptococcus neoformans; BALB/c mice. The procedure:
Blood samples were collected at 0, 0.5, 1, 2, 4, 8, 12, 16, 24, and 36 h after oral gavage. […] Other PK parameters are in Table 4. The values represent means±SD. […] On day 0, mice were infected with H99 (10^7 cells/mice) intranasally or mock-infected with PBS. Mice were euthanized on day 5, and lungs were dissected out, homogenized in RPMI-1640-MOPS media, and plated onto Sabouraud dextrose agar plates containing antibiotics. Plates were incubated at 30° C. for 72 h, and colonies were counted. […] VC: Vehicle control, (90% corn oil, 10% DMSO). Dpi: Days post-infection. CFU: Colony-forming units.
Efficacy studies in the mouse: The in vivo studies were done in a mouse model with the approval of IACUC, Wadsworth Center, Albany, NY. Male and female BALB/c mice 4-5-week-old were purchased from Jackson laboratory and quarantined for a week before shifting to the experimental room. The mice were grouped randomly with a male: female ratio 1:1, ears were punched as identification code. The formulation of the compound was done by dissolving the CMN in absolute DMSO and diluted in corn oil. The formulations were done daily, just before the dosing. […] Following this, the mice were anesthetized and infected with Cne-H99 cells ([…] in 30 μl PBS/mouse) intranasally. […] Mice were weighed every day, and visual observations were made for activity, movement, coat condition, etc. Food and water were ad libitum. On day 5, the mice were anesthetized and euthanized. Lung tissues were dissected out, weighed, and homogenized in 1 ml RPMI-MOPS media using a glass homogenizer. After log dilution of the tissue suspension in RPMI-MOPS, 100 μl from each dilution was plated onto SD agar plates with antibiotics (20 μg/ml penicillin, 40 μg/ml streptomycin, […], 25 μg/ml chloramphenicol). The plates were incubated at 30° C. for 3 days before counting the colonies. The counts were normalized with the weight of the lung tissue taken during the necropsy. The fungal load in the groups was compared with Student's t-test, and p<0.05 was considered as significant.

Structures are written as SMILES. Several values for one entry are separate records, joined by “and”; a condition that tells them apart may be missing. Identical values can stand only once. Like-named read-outs stand apart in the source and are kept apart here. Where only a bound is given, the exact number is not on record here.

The MIC is the lowest concentration found to suppress growth.

Regarding `CNc1ccc2oc(C[C@H]3O[C@@]4(CC[C@H]3C)O[C@H]([C@H](C)C(=O)c3ccc[nH]3)[C@H](C)C[C@H]4C)nc2c1C(=O)O` [CMN, calcimycin], in assay [1], the “spliced intein (approximately 20 kDa) in western blot” value is “dose-dependent reduction in spliced intein”. In addition, the minimal inhibitory concentration (MIC) in the assay on C. neoformans (Cne-WT) is 1.5 µg/mL; in the assay with C. neoformans (Cne-WT) (Cne-WT, visual, 30° C., read-out: MIC), 3 µM; in the assay with C. amylolentus (C. amylolentus, visual, 48 h, 30° C.), > 26.1 µg/mL and > 50 µM; in assay [2] it was 25.1 µg/mL and 48 µM; in the assay on C. gattii (NIH444) it was 1.5 µg/mL and 3 µM; in the assay on Cne cells (Cryptococcus neoformans, 48 h, read-out: MIC Alone), 1.31 µg/mL. Besides, the growth inhibition entry with C. amylolentus (natural inteinless cryptococcal sp. Cam) is on record as “no inhibition was observed”. Besides, the “MIC Comb” value in the assay on Cne cells (combination CMN + 5-Fluorocytosine, well D2) stood at 0.65 µg/mL; in the assay on Cne cells (combination CMN + Amphotericin B, well E6), 0.33 µg/mL; with Cne cells (combination CMN + Itraconazole, well E4), 0.33 µg/mL; in the assay on Cne cells (combination CMN + Voriconazole, well D4) it was 0.65 µg/mL. Besides, in the assay with Cne-H99 (CMN 20 mg/Kg BW orally once daily for 5 days, day 5), the “reduction in fungal burden vs vehicle control” value is 3 fold. For the same compound, the “fungal burden in the lungs” value with Cne-H99 (CMN 20 mg/Kg BW orally once daily for 5 days, day 5, vehicle 1.8×10^8) is listed as 6.3×10^7 CFU/g lung tissue. In the assay with Cne-H99 (CMN 20 mg/kg body weight), the “reduction in lung-fungal load” value turned out to be 60%.

The record behind these values is patent publication US20250186403A1 (ARIZONA BOARD OF REGENTS ON BEHALF OF THE UNIVERSITY OF …, priority 2022, published 2025).
